# Read-outs that look alike come from different tables or passages of the source.
# Test system: IL-1β production in PMA-differentiated THP-1 cells
# Test: IL-1β production in PMA-differentiated THP-1 cells stimulated with gramicidin (hTHP-1 assay containing 2% fetal bovine serum)
# Type: cell-based, human
# Settings: 2% fetal bovine serum, read-out: hTHP-1 IC50 (Average IC50 of compounds in hTHP-1 assay)
# Method in brief: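 IL-1β release was read by HTRF on supernatants of 50,000 PMA-primed (20 ng/ml, 16-18 h) THP-1 cells/well in 2% FBS medium. Cells saw compound for 1 h (11-point titration from 100 μM, 0.37% DMSO) before a 2 h gramicidin (5 μM) challenge.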
# [1] = Homo sapiens, THP-1, Table B1, class symbols
# [2] = Homo sapiens, THP-1, Table B2, class symbols
smiles,measurement,setting,value
"CC(C)c1cc(C#N)c(F)c(C(C)C)c1CC(=O)N=S(N)(=O)c1cc(C(C)(C)O)n(-c2ccccc2)n1 (stereo not shown) [Example 239, N-(amino(5-(2-hydroxypropan-2-yl)-1-phenyl-1H-pyrazol-3-yl)(oxo)-λ^6-sulfaneylidene)-2-(4-cyano-3-fluoro-2,6-diisopropylphenyl)acetamide]",IC50,[1],1 to 5 µM
"CC(C)c1cc2c(c(C(C)C)c1CC(=O)N=S(N)(=O)c1ccn(C(F)F)n1)COC2 (single isomer, unassigned) [Example 320, (S) or (R)-N-(amino(1-(difluoromethyl)-1H-pyrazol-3-yl)(oxo)-λ^6-sulfaneylidene)-2-(4,6-diisopropyl-1,3-dihydroisobenzofuran-5-yl)acetamide]",IC50,"Homo sapiens, THP-1, Table B1, cells printed as numeric bound",> 30 µM
"CC(C)c1cc(C#N)c(F)c(C(C)C)c1CC(=O)N=S(N)(=O)c1sc(C(C)(C)O)cc1F (single isomer, unassigned) [Example 45, (R)- or (S)-2-(4-cyano-3-fluoro-2,6-diisopropylphenyl)-N-(3-fluoro-5-(2-hydroxypropan-2-yl)thiophen-2-ylsulfonimidoyl)acetamide]",IC50,"Table B1, class symbols",1 to 5 µM
"CC(C)c1cc(F)cc(C(C)C)c1CC(=O)N=[S@@](=O)(NC#N)c1ncc(C(C)(C)O)s1 [Example 342, (R)-N-(cyanamido(5-(2-hydroxypropan-2-yl)thiazol-2-yl)(oxo)-λ^6-sulfaneylidene)-2-(4-fluoro-2,6-diisopropylphenyl)acetamide]",IC50,[1],1 to 5 µM
"CC(C)c1nc(-c2cccc(C(F)(F)F)c2)c(F)c(C(C)C)c1CC(=O)N=S(N)(=O)c1cnc(C(C)(C)O)s1 (single isomer, unassigned) [Example 203, (S) or (R)-N-(amino (2-(2-hydroxypropan-2-yl)thiazol-5-yl)(oxo)-λ^6-sulfaneylidene)-2-(5-fluoro-2,4-diisopropyl-6-(3-(trifluoromethyl)phenyl)pyridin-3-yl) acetamide]",IC50,"Table B1, class symbols",5 to 30 µM
"CCn1cc(F)c(S(N)(=O)=NC(=O)Cc2c(C(C)C)cc3c(c2C(C)C)OC(F)(F)O3)n1 (stereo not shown) [Example 394, N-(amino(1-ethyl-4-fluoro-1H-pyrazol-3-yl)(oxo)-λ^6-sulfaneylidene)-2-(2,2-difluoro-4,6-diisopropylbenzo[d][1,3]dioxol-5-yl)acetamide]",IC50,[2],0.2 to 1 µM
"CCc1cc(OC(F)F)cc(C(C)C)c1CC(=O)N=S(N)(=O)c1sc(C(C)(C)O)cc1F (single isomer, unassigned) [Example 79, (R)- or (S)-2-(4-(difluoromethoxy)-2-ethyl-6-isopropylphenyl)-N-(3-fluoro-5-(2-hydroxypropan-2-yl)thiophen-2-ylsulfonimidoyl)acetamide]",IC50,"Table B1, class symbols",5 to 30 µM
"CC(C)c1c2c(c3c(c1CC(=O)N=S(N)(=O)c1sc(C(C)(C)O)cc1F)CCC3)COC2 (stereo not shown) [Example 395, N-(Amino(3-fluoro-5-(2-hydroxypropan-2-yl)thiophen-2-yl) (oxo)-λ^6-sulfaneylidene)-2-(4-isopropyl-3,6,7,8-tetrahydro-1H-indeno[4,5-c]furan-5-yl)acetamide]",IC50,[2],0.2 to 1 µM
"CC(C)c1cc(F)cc(C(C)C)c1CC(=O)N=S(N)(=O)c1sc(C(C)(C)O)cc1F (single isomer, unassigned) [Example 51, (R)- or (S)-2-(4-fluoro-2,6-diisopropylphenyl)-N-(3-fluoro-5-(2-hydroxypropan-2-yl)thiophen-2-ylsulfonimidoyl)acetamide]",IC50,"Table B1, class symbols",0.2 to 1 µM
"CNCc1ccc(S(N)(=O)=NC(=O)Cc2c(C(C)C)cc(C(F)F)nc2C(C)C)cc1 (stereo not shown) [Example 254, N-(amino(4-((methylamino)methyl)phenyl)(oxo)-λ^6-sulfaneylidene)-2-(6-(difluoromethyl)-2,4-diisopropylpyridin-3-yl)acetamide]",IC50,[1],5 to 30 µM
"CC(C)c1cc(-c2ccc3c(c2)COCC3)cc(C(C)C)c1CC(=O)N=S(N)(=O)c1cnc(C(C)(C)O)s1 (single isomer, unassigned) [Example 172, (S) or (R)-N-(amino(2-(2-hydroxypropan-2-yl)thiazol-5-yl)(oxo)-λ^6-sulfaneylidene)-2-(4-(isochroman-7-yl)-2,6-diisopropylphenyl) acetamide]",IC50,"Table B1, class symbols",5 to 30 µM
"CC(C)c1cc(C(F)F)cc(C(C)C)c1CC(=O)N=S(N)(=O)c1ccc(CN(C)C)cc1F (single isomer, unassigned) [Example 215, (S) or (R)-N-(amino(4-((dimethylamino)methyl)-2-fluorophenyl) (oxo)-λ^6-sulfaneylidene)-2-(4-(difluoromethyl)-2,6-diisopropylphenyl) acetamide]",IC50,"Table B1, class symbols",1 to 5 µM
"CCc1c2c(cc(C(C)C)c1CC(=O)N=S(N)(=O)c1cc(C(C)(C)O)cs1)COC2 (stereo not shown) [Example 244, N-(amino (4-(2-hydroxypropan-2-yl)thiophen-2-yl)(oxo)-λ^6-sulfaneylidene)-2-(4-ethyl-6-isopropyl-1,3-dihydroisobenzofuran-5-yl) acetamide]",IC50,[1],1 to 5 µM
"CC(C)c1ccc(F)c(C(C)C)c1CC(=O)N=S(N)(=O)c1ccc(C(C)(C)O)s1 (single isomer, unassigned) [Example 175, (S) or (R)-N-(amino(5-(2-hydroxypropan-2-yl)thiophen-2-yl)(oxo)-λ^6-sulfaneylidene)-2-(3-fluoro-2,6-diisopropylphenyl) acetamide]",IC50,"Table B1, class symbols",1 to 5 µM
"CC(C)c1cc(C(F)F)nc(C(C)C)c1CC(=O)N=S(N)(=O)c1ccc(CN(C)C)cc1 (single isomer, unassigned) [Example 331, (R) or (S)-N-(amino(4-((dimethylamino)methyl)phenyl)(oxo)-λ^6-sulfaneylidene)-2-(6-(difluoromethyl)-2,4-diisopropylpyridin-3-yl)acetamide]",IC50,[1],1 to 5 µM
"CC(C)c1cc(C#N)cc(C2CC2)c1CC(=O)N=S(N)(=O)c1sc(C(C)(C)O)nc1CO (single isomer, unassigned) [Example 70, (S)- or (R)-(4-cyano-2-cyclopropyl-6-isopropylphenyl)-N-(4-(hydroxymethyl)-2-(2-hydroxypropan-2-yl)thiazol-5-ylsulfonimidoyl)acetamide]",IC50,"Table B1, class symbols",0.2 to 1 µM
"CC(C)c1cc(C(F)F)cc(C(C)C)c1CC(=O)N=S(N)(=O)c1ccc(CN(C)C)cc1 (single isomer, unassigned) [Example 325, (R) or (S)-N-(amino (4-((dimethylamino)methyl)phenyl)(oxo)-λ6-sulfaneylidene)-2-(4-(difluoromethyl)-2,6-diisopropylphenyl) acetamide]",IC50,"Table B1, class symbols",0.2 to 1 µM
"CC(C)c1cc(C#CC2CCCCC2)cc(C(C)C)c1CC(=O)N=S(N)(=O)c1cc(C(C)(C)O)n(-c2ccccc2)n1 (stereo not shown) [Example 226, N-(amino(5-(2-hydroxypropan-2-yl)-1-phenyl-1H-pyrazol-3-yl)(oxo)-λ^6-sulfaneylidene)-2-(4-(cyclohexylethynyl)-2,6-diisopropylphenyl)acetamide]",IC50,[1],1 to 5 µM
"CC(C)c1ncc(F)c(C(C)C)c1CC(=O)N=S(N)(=O)c1cc(C(C)(C)O)cs1 (single isomer, unassigned) [Example 208, N-(amino(4-(2-hydroxypropan-2-yl)thiophen-2-yl)(oxo)-λ^6-sulfaneylidene)-2-(5-fluoro-2,4-diisopropylpyridin-3-yl)acetamide]",IC50,"Table B1, class symbols",0.04 to 0.2 µM
